Results published in patent US20060058312A1, “Stabilized aqueous preparation for injection” (priority 2004, published 2006).

Assays:
[1] = Stability test at 60° C., effect of pH value with addition of ascorbic acid (Example 2), HPLC content; assay type: physicochemical
Experimental: (§1) For the aqueous preparations obtained in (1) to (3) above, tests evaluating stability at 60° C./3 weeks were performed. The calcium levofolinate content remaining in the aqueous solution was measured using high performance liquid chromatography under the following conditions (the same were employed in the following experiments) 2 ml each of the test preparations were weighed, and 10 ml of the internal standard solution described below (the same was employed in the following experiments) were added thereto. Subsequently, water was added to adjust the total volume of the solution to 50 ml, thereby to prepare a test solution. Meanwhile, 62.5 mg of calcium levofolinate were dissolved in water so as to prepare a 25 ml solution. Then, to 10 ml of the resultant solution were added 10 ml of the internal standard solution, and the total volume of the solution was adjusted to 50 ml by adding water, thereby to prepare a standard solution. For 20 μl of the standard solution and the test solution, the content of calcium levofolinate was measured by the liquid chromatography method under the following conditions.
(§2) 1) Measurement Conditions • Detector: Ultraviolet absorptiometer (Measurement wavelength: 254 nm) • Column: A stainless tube having an internal diameter of 4.0 mm and a length of 15 cm was filled with 5 μm of octadecylsilylated silica gel for liquid chromatography. • Column temperature: A constant temperature near 45° C. • Mobile phase: The pH value of a mixed test solution containing 0.008 mol/L of disodium hydrogen phosphate solution/methanol/40% aqueous tetrabutylammonium hydroxide solution (385:110:1.3 (volume ratio)) was adjusted to 7.5 by adding phosphoric acid. • Flow rate: The flow rate was regulated so that the retention time of calcium levofolinate became about 10 minutes. • Internal standard solution: A solution prepared by adding water to 0.04 g of methyl parahydroxybenzoate so that the whole amount of solution is 100 ml.
About 80 ml of water for injection were added to a beaker (volume: 200 ml). Then 0.56 g of sodium chloride, 0.3 g of tromethamine, and 0.5 g of ascorbic acid were added to it with bubbling of nitrogen gas, and the components were dissolved with stirring. Subsequently, to the resultant solution were added 1.375 g of calcium levofolinate (1.1 g, in terms of 5-formyl-(6S)-tetrahydrofolic acid), and the components were dissolved with stirring under heating to 45 to 50° C. Thereafter, the pH value of the solution was adjusted to 5.0 by adding 5% hydrochloric acid solution dropwise. A similar procedure to the above, except using 1% aqueous sodium hydroxide solution in place of 5% hydrochloric acid solution, was performed to produce solutions, each having a regulated pH value of 6.0, 7.0, 8.0, or 9.0. Water for injection was further added to each solution to adjust the total volume of the solution to 100 ml. Subsequently, the bubbling of nitrogen gas was stopped, and each solution was filtered with a filtration filter, thereby to yield a solution for injection. Subsequently, each of five 5 ml-glass ampules the inside space of which had been substituted by nitrogen gas, was filled with 5 ml of the resultant solution for injection, and was sealed by heating.
For each aqueous preparation obtained as above, a stability test at 60° C. was performed by measuring the remaining calcium levofolinate content by the high performance liquid chromatography method.

[2] = Stability test at 60° C., addition amount of ascorbic acid at pH 8.7 (Example 5), HPLC content; assay type: physicochemical; settings: for remaining calcium levofolinate content compared with the initial value (100): 60° C.
Experimental: as §1, §2
About 80 ml of water for injection were added to a beaker (volume: 200 ml). Then, 0.56 g of sodium chloride, 0.3 g of tromethamine, and 1.375 g of calcium levofolinate (1.1 g, in terms of 5-formyl-(6S)-tetrahydrofolic acid) were added to it with bubbling of nitrogen gas, and the components were dissolved with stirring (this procedure was performed 5 times). Subsequently, 0.05 g, 0.075 g, 0.1 g, 0.2 g, or 0.3 g of ascorbic acid was added to each solution, and was dissolved with stirring, to prepare five solutions. Thereafter, in the case where the addition amount of ascorbic acid is 0.05 g, 0.075 g, or 0.1 g, the pH value of each solution was regulated to 8.7 by adding 5% hydrochloric acid. In the case where the addition amount of ascorbic acid is 0.2 g, or 0.3 g, the pH value of each solution was regulated to 8.7 by adding 1% aqueous sodium hydroxide solution dropwise. Water for injection was further added to each solution to adjust the total volume of the solution to 100 ml. Subsequently, the bubbling of nitrogen gas was stopped, and each solution was filtered with a filtration filter, thereby to yield a solution for injection. Subsequently, each of five 5 ml-glass ampules the inside space of which had been substituted by nitrogen gas, was filled with 5 ml of the resultant solution for injection, and was sealed by heating.
For each aqueous preparation obtained as above, a test evaluating stability at 60° C. was performed by measuring the remaining calcium levofolinate content by the high performance liquid chromatography method.

SMILES: Nc1nc(=O)c2c([nH]1)NC[C@H](CNc1ccc(C(=O)N[C@@H](CCC(=O)O)C(=O)O)cc1)N2C=O [calcium levofolinate, (6S)-N-[4-[[(2-amino-5-formyl-1,4,5,6,7,8-hexahydro-4-oxo-6-pteridinyl)methyl]amino]benzoyl]-L-glutamic acid]
- remaining calcium levofolinate content compared with the initial value (100) ([1]; pH value 5.0, 60° C., 1 week): 91.5
- remaining calcium levofolinate content compared with the initial value (100) ([1]; pH value 5.0, 60° C., 2 weeks): 87.5
- remaining calcium levofolinate content compared with the initial value (100) ([1]; pH value 5.0, 60° C., 3 weeks): 86.0
- calcium levofolinate content, Initial value (100) ([1]; pH value 5.0, Initial value): 100
- remaining calcium levofolinate content compared with the initial value (100) ([1]; pH value 6.0, 60° C., 1 week): 95.8
- remaining calcium levofolinate content compared with the initial value (100) ([1]; pH value 6.0, 60° C., 2 weeks): 94.1
- remaining calcium levofolinate content compared with the initial value (100) ([1]; pH value 6.0, 60° C., 3 weeks): 92.8
- calcium levofolinate content, Initial value (100) ([1]; pH value 6.0, Initial value): 100
- remaining calcium levofolinate content compared with the initial value (100) ([1]; pH value 7.0, 60° C., 1 week): 96.3
- remaining calcium levofolinate content compared with the initial value (100) ([1]; pH value 7.0, 60° C., 2 weeks): 93.4
- remaining calcium levofolinate content compared with the initial value (100) ([1]; pH value 7.0, 60° C., 3 weeks): 92.5
- calcium levofolinate content, Initial value (100) ([1]; pH value 7.0, Initial value): 100
- remaining calcium levofolinate content compared with the initial value (100) ([1]; pH value 8.0, 60° C., 1 week): 94.4
- remaining calcium levofolinate content compared with the initial value (100) ([1]; pH value 8.0, 60° C., 2 weeks): 89.2
- remaining calcium levofolinate content compared with the initial value (100) ([1]; pH value 8.0, 60° C., 3 weeks): 87.0
- calcium levofolinate content, Initial value (100) ([1]; pH value 8.0, Initial value): 100
- remaining calcium levofolinate content compared with the initial value (100) ([1]; pH value 9.0, 60° C., 1 week): 95.7
- remaining calcium levofolinate content compared with the initial value (100) ([1]; pH value 9.0, 60° C., 2 weeks): 89.7
- remaining calcium levofolinate content compared with the initial value (100) ([1]; pH value 9.0, 60° C., 3 weeks): 85.3
- calcium levofolinate content, Initial value (100) ([1]; pH value 9.0, Initial value): 100
- remaining calcium levofolinate content compared with the initial value (100) ([2]; ascorbic acid 0.05%, 1 month): 84.5
- remaining calcium levofolinate content compared with the initial value (100) ([2]; ascorbic acid 0.05%, 1 week): 97.0
- remaining calcium levofolinate content compared with the initial value (100) ([2]; ascorbic acid 0.05%, 2 weeks): 92.1
- remaining calcium levofolinate content compared with the initial value (100) ([2]; ascorbic acid 0.05%, 3 weeks): 90.3
- calcium levofolinate content, Initial value (100) ([2]; ascorbic acid 0.05%): 100
- remaining calcium levofolinate content compared with the initial value (100) ([2]; ascorbic acid 0.075%, 1 month): 85.7
- remaining calcium levofolinate content compared with the initial value (100) ([2]; ascorbic acid 0.075%, 1 week): 97.1
- remaining calcium levofolinate content compared with the initial value (100) ([2]; ascorbic acid 0.075%, 2 weeks): 91.5
- remaining calcium levofolinate content compared with the initial value (100) ([2]; ascorbic acid 0.075%, 3 weeks): 90.9
- calcium levofolinate content, Initial value (100) ([2]; ascorbic acid 0.075%): 100
- remaining calcium levofolinate content compared with the initial value (100) ([2]; ascorbic acid 0.1%, 1 month): 84.9
- remaining calcium levofolinate content compared with the initial value (100) ([2]; ascorbic acid 0.1%, 1 week): 97.3
- remaining calcium levofolinate content compared with the initial value (100) ([2]; ascorbic acid 0.1%, 2 weeks): 92.2
- remaining calcium levofolinate content compared with the initial value (100) ([2]; ascorbic acid 0.1%, 3 weeks): 89.3
- calcium levofolinate content, Initial value (100) ([2]; ascorbic acid 0.1%): 100
- remaining calcium levofolinate content compared with the initial value (100) ([2]; ascorbic acid 0.2%, 1 month): 83.4
- remaining calcium levofolinate content compared with the initial value (100) ([2]; ascorbic acid 0.2%, 1 week): 96.6
- remaining calcium levofolinate content compared with the initial value (100) ([2]; ascorbic acid 0.2%, 2 weeks): 91.5
- remaining calcium levofolinate content compared with the initial value (100) ([2]; ascorbic acid 0.2%, 3 weeks): 88.6
- calcium levofolinate content, Initial value (100) ([2]; ascorbic acid 0.2%): 100
- remaining calcium levofolinate content compared with the initial value (100) ([2]; ascorbic acid 0.3%, 1 month): 82.0
- remaining calcium levofolinate content compared with the initial value (100) ([2]; ascorbic acid 0.3%, 1 week): 96.1
- remaining calcium levofolinate content compared with the initial value (100) ([2]; ascorbic acid 0.3%, 2 weeks): 90.5
- remaining calcium levofolinate content compared with the initial value (100) ([2]; ascorbic acid 0.3%, 3 weeks): 87.7
- calcium levofolinate content, Initial value (100) ([2]; ascorbic acid 0.3%): 100
